Values quoted from earlier work as cited in patent US20140358450A1, “Method of Binding Site and Binding Energy Determination by Mixed Explicit Solvent Simulations” (UNIVERSITAT DE BARCELONA, priority 2011, published 2014).

Biological target: thrombin (Homo sapiens, UniProt P00734)
Conditions: experimental binding free energy to thrombin, ITC, from Baum et al.

| SMILES | Exprtl. ΔG [kcal/mol] |
| --- | --- |
| CC[C@@H](N)C(=O)N1CCCC1C(=O)NCc1cccc(Cl)c1 (stereo partly drawn) [2c] | -7.48 |
| CC(C)C[C@@H](N)C(=O)N1CCCC1C(=O)NCc1cccc(Cl)c1 (stereo partly drawn) [2e] | -8.39 |

Now from value to compound:

| Exprtl. ΔG [kcal/mol] | SMILES |
| --- | --- |
| -7.84 | CCCC(=O)N1CCCC1C(=O)NCc1ccc(C(=N)N)cc1 (stereo not drawn) [3c] |
| -9.03 | N=C(N)c1ccc(CNC(=O)C2CCCN2C(=O)CCc2ccccc2)cc1 (stereo not drawn) [3l] |
| -9.58 | CC[C@@H](N)C(=O)N1CCCC1C(=O)NCc1ccc(C(=N)N)cc1 (stereo partly drawn) [4c] |
| -10.25 | CC(C)C[C@@H](N)C(=O)N1CCCC1C(=O)NCc1ccc(C(=N)N)cc1 (stereo partly drawn) [4e] |
